These are literature values, as cited in patent US20150064117A1, “NOVEL POLYMORPHS OF REBAUDIOSIDE C AND METHODS FOR MAKING AND USING THE SAME” (Redpoint Bio Corporation, priority 2009, published 2015).

The conditions of series [1]: relative to sucrose.

Where two headings read alike, the source gives them in different places.

For `C=C1C[C@@]23CC[C@H]4[C@@](C)(CCC[C@@]4(C)C(=O)O[C@@H]4O[C@H](CO)[C@@H](O)[C@H](O)[C@H]4O)[C@@H]2CC[C@]1(O[C@@H]1O[C@H](CO)[C@@H](O)[C@H](O)[C@H]1O[C@@H]1O[C@@H](C)[C@H](O)[C@@H](O)[C@H]1O)C3` [dulcoside A], in series [1], the “times sweeter than sucrose” value is reported as 30 times.

As to `C=C1C[C@@]23CC[C@H]4[C@@](C)(CCC[C@@]4(C)C(=O)O[C@@H]4O[C@H](CO)[C@@H](O)[C@H](O)[C@H]4O)[C@@H]2CC[C@]1(O[C@@H]1O[C@H](CO)[C@@H](O)[C@H](O[C@@H]2O[C@H](CO)[C@@H](O)[C@H](O)[C@H]2O)[C@H]1O[C@@H]1O[C@H](CO)[C@@H](O)[C@H](O)[C@H]1O)C3` [rebaudioside A], the “effect in mixture (presence and degree of synergism)” value (“effect in mixture” for short) is “additive” (mixture with fructose, intensity equivalent to 3% (w/v-%) sucrose); “additive” (mixture with fructose, intensity equivalent to 5% (w/v-%) sucrose); “suppressive” (mixture with fructose, intensity equivalent to 7% (w/v-%) sucrose); “additive” (mixture with glucose, intensity equivalent to 3% (w/v-%) sucrose); “additive” (mixture with glucose, intensity equivalent to 5% (w/v-%) sucrose); “suppressive” (mixture with glucose, intensity equivalent to 7% (w/v-%) sucrose). For the same compound, the “effect in mixture” value (mixture with sucrose, intensity equivalent to 3% (w/v-%) sucrose) is recorded as “synergistic”; the “effect in mixture” value (mixture with sucrose, intensity equivalent to 5% (w/v-%) sucrose) was “additive”; the “effect in mixture” value (mixture with sucrose, intensity equivalent to 7% (w/v-%) sucrose) was “additive”.

For the compound Rebaudioside C, the “times sweeter than sucrose” value in series [1] is not below 40 times.
